Measurements: patent US20210009682A1, “REDUCING CUTANEOUS SCAR FORMATION AND TREATING SKIN CONDITIONS” (Northwestern University, priority 2013, published 2021)
Entries after “also recorded” stand apart in the source; their conditions may differ. Where a name gives a salt, the structure may show the parent alone.

Columns and labels:
dermal fibroblasts = test: Activation of dermal fibroblasts (α-SMA and pro-Col I expression) by HaCaT condition medium; assay type: cell-based, human; details: for activation of fibroblasts: PGE2 receptor blockade in condition medium from HaCaT with increased water loss
Protocol: FIGS. 3A-C. ENaC senses sodium concentration changes in keratinocytes and regulates downstream genes. Stratified HaCaT and fibroblast were co-cultured in transwell plates and subjected to increased water loss and control conditions for 16 hours. Expression of α-SMA and pro-Col I was detected in dermal fibroblasts (HDF) with their specific antibodies and visualized with fluorescence labeled secondary antibodies, Nuclei were stained with DAPI. (FIG. 3A, Panels A-D) Stratified HaCaT and fibroblasts in control condition. (FIG. 3A, Panels E-H) Stratified HaCaT and fibroblasts in increased water loss condition. (FIG. 3A, Panels I-L) Stratified ENaC knockdown HaCaT and fibroblasts in control condition. (FIG. 3A, Panels M-P) Stratified ENaC knockdown HaCaT and fibroblasts in increased water loss condition. (FIGS. 3B-C) The quantification of expression levels of α-SMA and pro-Col I by ImageJ. The scale bar represents 100 μm. *p<0.05, **p<0.01.
FIGS. 4A-C. Show results from Example 1 where it was determine that PGE2 is important for the activation of fibroblasts by keratinocytes. As described in Example 1, condition medium of stratified wild type (or ENaC knockdown) HaCaT culture under increased water loss was collected and supplemented to fibroblasts for 24 hours. Expression of α-SMA and pro-collagen I in dermal fibroblasts was tested as described in
FIG. 3. (FIG. 4A, Panels A-D) Wild type HaCaT condition medium (CM). (FIG. 4A, Panels E-H) ENaC-knockdown HaCaT condition medium. (FIG. 4A, Panels I-L) ENaC-knockdown HaCaT condition medium plus 10 μM of PGE2. (FIGS. 4B-C) Quantification of expression levels of α-SMA (FIG. 4B) and pro-Col I (FIG. 4C) was performed by ImageJ. The scale bar represents 100 μm. **p<0.01.
Since the PGE2 is a downstream product of COX-2 and found to be involved in regulation of fibroblast cytoskeletal dynamics during airway epithelium injury (37), it was hypothesized that PGE2 signaling is important for keratinocyte-fibroblast signaling. […]

[1] = tested on: rabbit ear hypertrophic scar; test: Hypertrophic scar model in the rabbit ear (scar elevation index); assay type: in vivo; details: for scar elevation index (SEI): topical, harvested POD28
Protocol: As described in Example 1, full thickness 7 mm excision wounds were made on the ventral side of the rabbit ears at PODO. Amiloride (an ENaC inhibitor) or Celecoxib (a COX-2 inhibitor) was applied to the wounds every other day for a total of three times starting at POD14. Wounds harvested at POD28 and histological analysis was performed. (A-D) Representative pictures of wound histology at POD28. Rabbit ear wounds with Amiloride treatment (B) and control (A) and with Celecoxib treatment (D) and its control (C) are shown. (E) The scar elevation index (SEI) was calculated and used to evaluate the scar formation. (F. G) SEI. Twelve wounds for each dose of treatment and 12 controls were used for the analysis. *P<0.05. Scar bar stands for 1000 μm. **p<0.01. […] The present invention is not limited by such a mechanism and an understanding of the mechanism is not necessary to practice the present invention.
Sustained activation of dermal fibroblasts with accumulation of collagen is the main cause of hypertrophic scars (38, 39). […] The role of the ENaC-COX-2 pathway was investigated in vivo utilizing a well validated hypertrophic scar model in the rabbit ear (31, 40-43). Amiloride, an ENaC antagonist, was topically applied to the rabbit ear wounds after re-epithelialization was complete. Control scars, located on the contralateral ear, were treated with vehicle alone. In this model, absence of scar elevation gives a scar elevation index (SEI) of 1.0, and control wounds heal with an elevated scar (SEI >1). […] This reduction in scarring exceeds other therapies in validated model of hypertrophic scarring (14, 44, 45). In an identically designed experiment, Celecoxib, a COX-2 inhibitor, was applied on rabbit ear wounds to evaluate its effect on formation of hypertrophic scars. Similarly, treatment of 2 mg/wound of Celecoxib on rabbit ear wounds reduced the hypertrophy of the scar from 1.53±0.10 to 1.23±0.07 (FIG. 5C, D, and G).

[2] = tested on: stratified keratinocytes (HaCaT); test: Sodium flux by scanning ion-selective electrode technique (SIET) in stratified keratinocyte culture with increased water loss; assay type: cell-based, human; design: dose or concentration left out as unconfirmed; details: amiloride
Protocol: As described in Example 1, HESCs or stratified keratinocytes (HaCaT) were cultured for 16 hours in the indicated conditions and ion fluxes were measured immediately after the samples were submerged in the bathing buffer. Sodium flux in HESCs culture with increased water loss (A) or increased media sodium concentration (10% more than control) (B). Sodium flux in stratified keratinocytes culture with increased water loss (C) or sodium concentration (D). Calcium (E) or chloride (F) flux in stratified keratinocytes culture with increased water loss. (G) Sodium flux in amiloride treated stratified keratinocytes culture with increased water loss. […] Background readings were obtained more than 1000 μm away from the sample. *p<0.05, **p<0.01.
Increased trans-epidermal water loss results in higher sodium flux. To estimate the change of sodium flux of skin, the sodium flux was measured in human ex vivo skin culture (HESC), which retains important elements of in vivo skin and recapitulates the features of human wound repair (25, 26). […] To validate increased TEWL, expression levels of aquaporin 3 (AQP3) were measured, which has been reported as a molecular marker to indicate the hydration conditions of skin (27, 28). […]
Changes in sodium flux were evaluated using a scanning ion-selective electrode technique (SIET). […]

COX-2 [3] = test: COX-2 mRNA expression by RT-qPCR in human foreskin keratinocytes (HK) culture; assay type: cell-based; details: HKs with calcium channel blocked
Protocol: FIGS. 2A-F. Regulation of COX-2 and PGE2 by sodium flux is mediated by ENaC. FIGS. A and B show mRNA expression analysis of COX-2 as described in Example 1. (A) COX-2 mRNA expression in HESCs. HESCs were cultured with increased water loss condition for 4 or 16 hours (n=4). Total RNAs were isolated and RT-qPCR was performed. Gene expression was normalized according to the expression level of GAPDH. The level of COX-2 expression in HESCs treated with increased water loss was compared to that in control cells, which was set at 100% as expression level. (B) COX-2 mRNA expression keratinocytes culture. Stratified wild type or ENaC-knockdown HaCaT cells were cultured with increased water loss or sodium concentration condition for 16 hours (n=4). (C) PGE2 protein expression. Monolayer wild type or ENaC-knockdown HaCaT cells were cultured with increased sodium concentration condition for 16 hours (n=4). The amount of PGE2 in culture medium was measured by ELISA. (D) Western blot analysis (n=4). […] After 10, 30, 60, 240 minutes treatment, samples were harvested and western blot was performed with antibodies against phosphorylated-Akt, and Akt. β-actin was detected as a loading control. […] Cox-2 mRNA (E) and PGE2 (F) protein expression were analyzed by RT-qPCR and ELISA. *p<0.05, **p<0.01. […]

IL-1β = test: Expression of IL-1β in keratinocytes incubated with trypsin; assay type: cell-based, human; details: for up-regulation of IL-1β: high concentration of sodium stimulation
Description: (§1) FIGS. 9A-I. Prss8 is an important protein downstream of Nax. […] As a primary function, Prss8 can activate ENaC by cleaving its a subunit. The cleaved and non-cleaved bands can be visualized by an ENaC specific protein with western blotting (H). […] However, the cleavage of the ENaC a subunit was enhance by trypsin in Nax knockdown keratinocytes (H and I). FIG. 10. The keratinocytes differentiation with or without knockdown of Nax. Keratinocytes can be differentiated in differentiation medium to form a multiple cell layer structure like skin epidermis (Panel A). […] Knockdown of Nax inhibited the keratinocyte differentiation (Panel B) with the absence of K10 marker in the cell (Panel E). […] The expression of differentiation markers are similar to the differentiated wild type keratinocytes.
(§2) To further confirm the pathway of Nax-Prss8-ENaC, a Prss8 homolog, trypsin was used to activate the ENaC with the knockdown of Nax.

ENaC a subunit = test: Cleavage of the ENaC α subunit by western blotting in keratinocytes; assay type: cell-based, human; details: Nax knockdown keratinocytes
Description: as §1

IL-8 = test: Expression of IL-8 in keratinocytes incubated with trypsin; assay type: cell-based, human; details: for up-regulation of IL-8: high concentration of sodium stimulation
Description: as §1, §2

COX-2 [4] = test: Expression of COX-2 in keratinocytes incubated with trypsin; assay type: cell-based, human; details: for up-regulation of COX-2: high concentration of sodium stimulation
keratinocytes = test: Keratinocyte differentiation in differentiation medium (K14/K10 markers); assay type: cell-based, human; details: Nax knockdown keratinocytes, daily incubation with differentiation medium containing 10 ug/ml trypsin
Description: as §1, §2

[5] = wild type keratinocytes, 10 μg/ml trypsin

**Q.** `CC(C)Oc1ccc2c(=O)c3cc(C(=O)O)ccc3oc2c1` [AH6809] was tested. Which activation of fibroblasts (dermal fibroblasts) did it give?
**A.** The activation of fibroblasts was “reduced activation of fibroblasts to control levels”.

**Q.** How did the “scar formation / hypertrophy of rabbit ear scar (in words)” value ([1]; rabbit ear scar treatment, 28 days post wounding) turn out when `N=C(N)NC(=O)c1nc(Cl)c(N)nc1N` [amiloride] was run?
**A.** Its value is “clearly showed the improvement of the scar formation”.

**Q.** What about the “reduction of scar formation compared to control wound healing groups” value ([1]; rabbit ear wounds, lower concentrations) of the same compound?
**A.** The value was “did not show significant reduction”.

**Q.** What about the “scar elevation index (SEI)” value ([1]; rabbit ear wounds, 0.5 mg/wound) of the same compound?
**A.** The value was 1.06±0.05.

**Q.** What about the “enhanced sodium flux due to increased water loss” value [2] of the same compound?
**A.** The value was “completely abolished”.

**Q.** With `Cc1ccc(-c2cc(C(F)(F)F)nn2-c2ccc(S(N)(=O)=O)cc2)cc1` [Celecoxib] as the compound, how does the “scar elevation index (SEI)” value ([1]; rabbit ear wounds, 2 mg/wound) read?
**A.** Its value is 1.23±0.07.

**Q.** With `COC(=O)C1=C(C)NC(C)=C(C(=O)OC2CCCN(Cc3ccccc3)C2)C1c1cccc([N+](=O)[O-])c1` (centres unmarked) [benidipine hydrochloride] as the compound, how does the “increased expression levels of COX-2 during increased water loss or sodium concentration” value (COX-2 [3]) read?
**A.** Its value is “not abolished”.

**Q.** With `CCCCCC(O)CCC1CCC(=O)N1CCCCCCC(=O)O` (centres unmarked) [CAY10580] as the compound, how does the activation of fibroblasts (dermal fibroblasts) read?
**A.** The activation of fibroblasts was “reduced activation of fibroblasts to control levels”.

**Q.** Which “activation of fibroblasts (α-SMA and pro-Col I)” value (dermal fibroblasts; 10 μM PGE2 added to ENaC knockdown HaCaT culture conditioned medium, 24 hours) does the source give for `CCCCC[C@H](O)/C=C/[C@H]1[C@H](O)CC(=O)[C@@H]1C/C=C\CCCC(=O)O` [PGE2, prostaglandin E2] here?
**A.** The value was “successfully rescued”.

**Q.** How did the “up-regulation of IL-1β” value (IL-1β; ENaC knockdown keratinocytes) turn out when trypsin was run?
**A.** The value was “recovered the up-regulation”.

**Q.** And the “up-regulation of IL-1β” value (IL-1β; Nax knockdown keratinocytes)?
**A.** Its value is “recovered the up-regulation; also recorded: up-regulated”.

**Q.** What about the “expression of IL-1β” value (IL-1β; [5]) of the same compound?
**A.** The value was “significantly increased”.

**Q.** And the “cleavage of the ENaC a subunit” value (ENaC a subunit)?
**A.** Its value is “enhance”.

**Q.** And the “up-regulation of IL-8” value (IL-8; ENaC knockdown keratinocytes)?
**A.** Its value is “recovered the up-regulation”.

**Q.** And the “up-regulation of IL-8” value (IL-8; Nax knockdown keratinocytes)?
**A.** The value was “recovered the up-regulation; also recorded: up-regulated”.

**Q.** And the “expression of IL-8” value (IL-8; [5])?
**A.** The value was “significantly increased”.

**Q.** What about the “up-regulation of COX-2” value (COX-2 [4]; ENaC knockdown keratinocytes) of the same compound?
**A.** The value was “but not in ENaC knockdown cells”.

**Q.** And the “up-regulation of COX-2” value (COX-2 [4]; Nax knockdown keratinocytes)?
**A.** The value was “recovered the up-regulation; also recorded: up-regulated”.

**Q.** And the “expression of COX-2” value (COX-2 [4]; [5])?
**A.** The value was “significantly increased”.

**Q.** What about the differentiation of keratinocytes (keratinocytes) of the same compound?
**A.** The differentiation of keratinocytes was “re-established the differentiation; also recorded: successfully recovered the differentiation”.
